The text below walks through data of publication PMC2954514 (Molecular cancer therapeutics, 2010).

Values joined by “and” are separate entries in the source; they are usually repeats but may differ in a detail not shown here. Equal entries are not always repeated. Where two headings read alike, the source gives them in different places.

Assay [1] deals with Bovine brain microtubule protein (MTP). Description: Electron microscopy of polymers formed. The class given is biochemical.
Assay [2] addresses MAP-free bovine brain microtubules (Bos taurus, UniProt Q6B856). Description: Microtubule dynamic instability at plus ends. Conditions: for Dynamicity, Percent Change (suppression of dynamic instability): 0.1 μmol/L (100 nmol/L) compound vs control; for Dynamicity, Percent Change (suppression of dynamic instability) / Catastrophe Frequency, Percent Change / Growing Lengths, Percent Change / Percent Time Shortening, Percent Change / Rescue Frequency, Percent Change / Shortening Lengths, Percent Change / Shortening Rates, Percent Change / Growing Rates, Percent Change / Percent Time Growing, Percent Change: (−) decrease; for Catastrophe Frequency / Dynamicity / Percent Time Attenuated / Percent Time Growing / Percent Time Shortening / Rescue Frequency / Growing Lengths / Shortening Lengths / Shortening Rates / Growing Rates: 0.1 μmol/L compound; for Percent Time Attenuated (pause), Percent Change / Catastrophe Frequency, Percent Change / Growing Lengths, Percent Change / Percent Time Shortening, Percent Change / Rescue Frequency, Percent Change / Shortening Lengths, Percent Change / Shortening Rates, Percent Change / Growing Rates, Percent Change / Percent Time Growing, Percent Change: 0.1 μmol/L compound vs control; for Percent Time Attenuated (pause), Percent Change / Growing Rates, Percent Change / Percent Time Growing, Percent Change: (+) increase; for Growing Lengths / Shortening Lengths / Shortening Rates / Growing Rates: mean ± SEM; for Growing Rates: plus ends, steady state. It counts as biochemical.

The next assay deals with rat brain tubulin. Conditions: read-out: KD for tubulin reported previously; cited from earlier work.
Assay [3] deals with Bovine brain microtubule protein (MTP, tubulin and microtubule-associated proteins) (Bos taurus, UniProt Q6B856). Nature of the assay: Inhibition of microtubule polymerization. It counts as biochemical. As to conditions: for reduction of microtubule polymer mass: 100 nmol/L compound.
Bovine brain microtubule protein (MTP, tubulin and microtubule-associated proteins), sequence (P81947 whole entry): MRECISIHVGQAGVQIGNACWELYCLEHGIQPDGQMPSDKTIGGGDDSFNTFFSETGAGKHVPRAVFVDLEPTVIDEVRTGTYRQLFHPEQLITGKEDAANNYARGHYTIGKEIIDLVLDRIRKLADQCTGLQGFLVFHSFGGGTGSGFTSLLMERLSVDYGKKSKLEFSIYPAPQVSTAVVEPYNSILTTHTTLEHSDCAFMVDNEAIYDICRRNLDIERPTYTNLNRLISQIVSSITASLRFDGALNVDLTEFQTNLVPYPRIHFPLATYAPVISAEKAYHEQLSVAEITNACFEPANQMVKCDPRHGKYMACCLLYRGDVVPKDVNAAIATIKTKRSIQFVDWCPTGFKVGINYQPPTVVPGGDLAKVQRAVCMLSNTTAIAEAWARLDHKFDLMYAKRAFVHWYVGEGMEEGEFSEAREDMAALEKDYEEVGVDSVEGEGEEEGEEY
Bovine brain microtubule protein (MTP, tubulin and microtubule-associated proteins), sequence (Q6B856 whole entry): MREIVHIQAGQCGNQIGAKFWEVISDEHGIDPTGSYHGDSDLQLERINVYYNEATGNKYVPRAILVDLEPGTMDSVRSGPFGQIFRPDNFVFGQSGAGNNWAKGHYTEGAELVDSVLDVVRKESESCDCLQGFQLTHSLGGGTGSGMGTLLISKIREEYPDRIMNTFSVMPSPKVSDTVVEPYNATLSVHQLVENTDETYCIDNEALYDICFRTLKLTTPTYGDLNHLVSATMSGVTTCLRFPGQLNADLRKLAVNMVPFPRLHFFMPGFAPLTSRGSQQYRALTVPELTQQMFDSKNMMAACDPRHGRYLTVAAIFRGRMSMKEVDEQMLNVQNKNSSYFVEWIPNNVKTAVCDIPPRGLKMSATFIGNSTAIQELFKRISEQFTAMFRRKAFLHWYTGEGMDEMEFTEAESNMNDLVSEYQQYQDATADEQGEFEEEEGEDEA
Assay [4] has as its target soluble bovine brain tubulin (Bos taurus, UniProt Q6B856). Description: Binding to soluble tubulin.
Assay [5] has as its target steady-state microtubules (MAP-rich). Nature of the assay: Binding of [3H]S-methyl DM1 to steady-state microtubules. Further details: species or system bovine.
Assay [6] deals with microtubules. As to conditions: cited from earlier work.
Assay [7] has as its system microtubules. Conditions: cited from earlier work. The source holds these as a separate data set.
For a further assay, the system named is metastatic breast cancer. As to conditions: Phase II, patients with metastatic breast cancer; cited from earlier work.
Where [8] appears, read: 20 μmol/L compound (maytansine: 4 μmol/L and 20 μmol/L).

MAP-free bovine brain microtubules, sequence (Q6B856 whole entry): as above
MAP-free bovine brain microtubules, sequence (P81947 whole entry partner): as the sequence (P81947 whole entry) above
soluble bovine brain tubulin, sequence (P81947 whole entry): as above
soluble bovine brain tubulin, sequence (Q6B856 whole entry): as the sequence (Q6B856 whole entry) above

With `COc1cc2cc(c1Cl)N(C)C(=O)C[C@H](OC(=O)[C@H](C)N(C)C(C)=O)[C@]1(C)O[C@H]1[C@H](C)[C@@H]1C[C@@](O)(NC(=O)O1)[C@H](OC)/C=C/C=C(\C)C2` [Maytansine, reference compound], the “polymer morphology by electron microscopy” value (shortened to “polymer morphology”) in assay [1] (2 μmol/L compound) is “very few microtubules and no aggregates”. For the same molecule, the “polymer morphology” value in assay [1] (setting [8]) is recorded as “no microtubules or aggregates”. Also, in [2], the “Dynamicity, Percent Change (suppression of dynamic instability)” value (from here on “Dynamicity, Percent Change”) is 45 (−) %; the “Catastrophe Frequency” value is on record as 0.21 per min; the Dynamicity was 0.72; the “Percent Time Attenuated” value is given as 65%. Besides, in [2], the “Percent Time Growing” value was found to be 24%; the “Percent Time Shortening” value amounted to 11%; the “Rescue Frequency” value came to 0.60 per min; the “Percent Time Attenuated (pause), Percent Change” value was 5 (+) %. Moreover, in [2], the “Catastrophe Frequency, Percent Change” value is 30 (−) %; the “Growing Lengths, Percent Change” value is given as 37 (−) %; the “Percent Time Shortening, Percent Change” value was 26 (−) %; the “Rescue Frequency, Percent Change” value was 40% and 40 (−) %. Besides, in assay [2], the “Shortening Lengths, Percent Change” value is reported as 40 (−) %; the “Shortening Rates, Percent Change” value was 35% and 35 (−) %; the “Growing Rates, Percent Change” value is 35% and 35 (−) %; the “Percent Time Growing, Percent Change” value is 3.4 (+) %. In assay [2], the “Growing Lengths” value was determined as 1.2 ± 0.1 μm/event, the “Shortening Lengths” value is given as 1.8 ± 0.9 μm/event, the “Shortening Rates” value is on record as 5.8 ± 0.5 μm/min and the “Growing Rates” value stood at 1.1 ± 0.2 μm/min. In assay [2] (listed as maytansine), the “Dynamicity, Percent Change” value came out at 45%; the “Percent Time Attenuated (pause), Percent Change” value is “negligible effect”; the “Catastrophe Frequency, Percent Change” value was found to be 30%; the “Shortening Lengths, Percent Change” value was 40%. Also, the Kd (usually the equilibrium constant for the complex coming apart) at rat brain tubulin is 700 nM. Besides, in assay [3] (read-out: reduction of microtubule polymer mass), the inhibition at 0.1 µM turned out to be 20%. This molecule showed a Kd in [4] of 860 ± 200 nM.

As for `COc1cc2cc(c1Cl)N(C)C(=O)C[C@H](OC(=O)[C@H](C)N(C)C(=O)CCSC)[C@]1(C)O[C@H]1[C@H](C)[C@@H]1C[C@@](O)(NC(=O)O1)[C@H](OC)/C=C/C=C(\C)C2` [S-methyl DM1, N^2'-deacetyl-N^2'-(3-thiomethyl-1-oxopropyl)-maytansine], the “concentrations inducing tubulin aggregates detectable by electron microscopy” value in assay [1] is at least 2 µmol/L. The “polymer morphology” value in [1] (2 μmol/L compound) is listed as “a small number of small aggregates along with the microtubules”. Further, in assay [1] (setting [8]), the “polymer morphology” value is on record as “an increase in aggregate formation”. Also, the “suppression of dynamicity (change)” value in assay [2] (20 nmol/L, data not shown) is given as ~ 6%. Also, in assay [2], the “Dynamicity, Percent Change” value is 84% and 84 (−) %; the “Catastrophe Frequency” value is 0.03 per min; the Dynamicity is recorded as 0.21; the “Percent Time Attenuated” value is recorded as 87.4%. For the same molecule, in assay [2], the “Percent Time Growing” value is on record as 7.3%; the “Percent Time Shortening” value is 5.4%; the “Rescue Frequency” value was 0.56 per min; the “Percent Time Attenuated (pause), Percent Change” value was 41% and 41 (+) %. For the same molecule, in [2], the “Catastrophe Frequency, Percent Change” value is 90% and 90 (−) %; the “Growing Lengths, Percent Change” value is 47 (−) %; the “Percent Time Shortening, Percent Change” value is reported as 64 (−) %; the “Rescue Frequency, Percent Change” value is on record as 44 (−) %. In assay [2], the “Shortening Lengths, Percent Change” value is 60% and 60 (−) %; the “Shortening Rates, Percent Change” value was 70% and 70 (−) %; the “Growing Rates, Percent Change” value was 24 (−) %; the “Percent Time Growing, Percent Change” value was 70 (−) %. Further, in assay [2], the “Growing Lengths” value is reported as 1 ± 0.1 μm/event, the “Shortening Lengths” value was 1.2 ± 0.2 μm/event, the “Shortening Rates” value amounted to 2.7 ± 0.9 μm/min and the “Growing Rates” value came out at 1.3 ± 0.4 μm/min. Moreover, in [5], the “KD of low affinity sites, fold higher than high affinity sites” value worked out at 20 fold; the “binding to high affinity sites on microtubules, fold more strongly than vinblastine” value was 20 fold and 19 fold; the “number of low affinity sites” value is listed as “several hundred”. Also, in assay [5] (0.1 μmol/L (100 nmol/L)), the “molecules bound per microtubule” value is 19 ± 1 and 19. Moreover, the “mean length of the microtubules” value in [5] (500 nmol/L – 4 μmol/L, standard deviation 4.5 μm) is 13.9–14.1 μm. In addition, the “molecules bound per microtubule or sedimentable aggregate” value in assay [5] (1 μmol/L) was “approximately 105”. In addition, the “molecules bound per microtubule or sedimentable aggregate” value in assay [5] (4 μmol/L) was 210 ± 37 and ~210. The “number of high affinity sites per microtubule” value in [5] (Scatchard X-intercept) was 37. Also, in assay [5] (between 0 and 100 nmol/L, maximum standard deviation 4 μm), the “mean length of the microtubules” value is 14.4–14.5 μm. Further, the “molecules bound to sedimentable polymer, per microtubule” value in [5] (concentrations ≥500 nmol/L) was 60–210. Also, in assay [5] (pre-assembled MAP-rich microtubules, 1 h, any concentration (0 – 4 μM)), the “decrease of microtubule polymer mass” value is “less than 4%”. Besides, in [5] (read-out: KD, high affinity sites on microtubules, low drug concentrations (10 nmol/L – 100 nmol/L)), the Kd came out at 100 ± 50 nM. In addition, in [5] (read-out: KD, low affinity sites on microtubules and sedimentable aggregates, higher drug concentrations (0.1 μmol/L to 4 μmol/L)), the Kd was 2200 ± 200 nM. Moreover, the “reduction of microtubule polymer mass” value in assay [3] was “less than 3%”. In addition, in [3] (MTP 3 mg/mL, 30°C), the “concentration showing nearly complete inhibition of microtubule polymerization” value turned out to be 20 µmol/L. For the same molecule, the Kd in assay [4] (read-out: equilibrium dissociation constant (KD) for soluble tubulin, 3 μmol/L tubulin, PEM buffer, 45 min, 30°C) is 930 nM and 900 nM.

For the molecule `COc1cc2cc(c1Cl)N(C)C(=O)C[C@H](OC(=O)[C@H](C)N(C)C(=O)CCC(C)(C)SC)[C@]1(C)O[C@H]1[C@H](C)[C@@H]1C[C@@](O)(NC(=O)O1)[C@H](OC)/C=C/C=C(\C)C2` [S-methyl DM4, N^2'-deacetyl-N^2'-(4-thiomethyl-4-methyl-1-oxopentyl)-maytansine], in [1], the “concentrations inducing tubulin aggregates detectable by electron microscopy” value was at least 2 µmol/L. The “polymer morphology” value in assay [1] (2 μmol/L compound) is “aggregates as well as both normal and also some imperfect, ragged microtubules with loose protofilamentous structure”. Besides, the “polymer morphology” value in [1] (setting [8]) is listed as “more extensive aggregation of tubulin occurred with no intact microtubules”. Also, in assay [2], the “Dynamicity, Percent Change” value was 73% and 73 (−) %; the “Catastrophe Frequency” value came out at 0.03 per min; the Dynamicity turned out to be 0.35; the “Percent Time Attenuated” value was 80.6%. For the same molecule, in assay [2], the “Percent Time Growing” value is 15.2%; the “Percent Time Shortening” value stood at 4.2%; the “Rescue Frequency” value was 0.50 per min; the “Percent Time Attenuated (pause), Percent Change” value is 30% and 30 (+) %. Moreover, in assay [2], the “Catastrophe Frequency, Percent Change” value was 90% and 90 (−) %; the “Growing Lengths, Percent Change” value is given as 16 (−) %; the “Percent Time Shortening, Percent Change” value was 72 (−) %; the “Rescue Frequency, Percent Change” value is listed as 50 (−) %. For the same molecule, in [2], the “Shortening Lengths, Percent Change” value was 60% and 60 (−) %; the “Shortening Rates, Percent Change” value is 56% and 56 (−) %; the “Growing Rates, Percent Change” value was 24 (−) %; the “Percent Time Growing, Percent Change” value is reported as 34 (−) %. In [2], the “Growing Lengths” value is on record as 1.6 ± 0.1 μm/event, the “Shortening Lengths” value is reported as 1.2 ± 0.2 μm/event, the “Shortening Rates” value was found to be 3.9 ± 0.4 μm/min and the “Growing Rates” value is 1.3 ± 0.3 μm/min. Besides, the “reduction of microtubule polymer mass” value in assay [3] is listed as “less than 3%”. Moreover, in assay [3] (between 10 μmol/L and 20 μmol/L), the “plateau inhibition of polymerization” value is reported as 75%. The “plateau of sedimentable polymer, % of the control polymer mass” value in assay [3] (between 10 and 20 μmol/L) is 25%.

Take `C=C1C[C@@H]2CC[C@@]34C[C@H]5O[C@H]6[C@@H](O3)[C@H]3O[C@H](CC[C@@H]3O[C@H]6[C@H]5O4)CC(=O)C[C@@H]3[C@@H](OC)[C@@H](C[C@H](O)CN)O[C@H]3C[C@H]3O[C@@H](CC[C@@H]1O2)C[C@@H](C)C3=C` [eribulin]: in the assay on microtubules [6], the “high affinity binding sites per microtubule” value is reported as 14.7 ±1.3.

Take `CC[C@]1(O)C[C@@H]2CN(CCc3c([nH]c4ccccc34)[C@@](C(=O)OC)(c3cc4c(cc3OC)N(C)[C@H]3[C@@](O)(C(=O)OC)[C@H](OC(C)=O)[C@]5(CC)C=CCN6CC[C@]43[C@@H]65)C2)C1` [vinblastine]: in the assay on microtubules [7] (100 nmol/L), the “suppression of catastrophe frequency” value was ~ 30%, the “suppression of growth rate” value is 34% and the “suppression of shortening rate” value is on record as 47%. The “enhancement of rescue frequency” value with microtubules [7] was ~ 200%. The “high affinity binding sites per microtubule” value in the assay with microtubules [6] is reported as 16.8 ± 4.3.

Turning to trastuzumab-DM1, the “interim overall response rate” value with metastatic breast cancer is given as 39%.
